Measured values as given in patent US20230128907A1, “PARIS POLYPHYLLA SAPONIN EXTRACT WITH ACTIVITY AGAINST MULTIDRUG-RESISTANT BACTERIA AND PREPARATION AND USE THEREOF” (XI'AN KANGYUANSHENG BIOMEDICAL TECHNOLOGY CO., LTD., priority 2021, published 2023).
Structures can show the parent of a compound that is named as a salt.

Tests used:
Type in all cases: cell-based
[1] = test system: Multidrug-resistant Pseudomonas aeruginosa 174; assay: MIC by liquid micro-dilution method; design: key: “+” means bacterial growth; “−” means no bacterial growth
Experimental: (§1) The minimum inhibitory concentration (MIC) of the extract was determined by liquid microdilution method.
(§2) Twenty-four hours before the experiment, the test strains preserved in low temperature were taken out and placed at room temperature. A small amount of bacterial liquid was drawn with a pipette, inoculated into the sterilized and cooled growth medium, and placed in a 35° C. incubator for 24 hours. A pipette was used to transfer a small amount of activated bacterial colonies to a sterilized dry test tube, diluted with medium to a turbidity similar to that of a 0.5 McFarland turbidimetric tube (1.5×10^8 CFU/mL), and then diluted with medium by […], so that the bacterial suspension concentration reaches 1.0×10^6 CFU/mL (diluted twice before being added to the wells, and the final bacterial concentration in the system being 5×10^5 CFU/mL) for MIC measurement.
(§3) In a sterile 96-well flat-bottom microculture plate, 100 μL of […] positive control solution was added to the No. […] 2-11 well, respectively. No. 12 well was solvent.
(§4) The plate was incubated in a 30° C. incubator for 24 hours, the experimental results were observed, and the minimum inhibitory concentration (MIC) values were determined. […] The difference was counted as “≤[…].” The above experiments were performed in parallel for 3 times. When the MIC value could be accurately repeated or only differed by one concentration, it was accepted. The higher concentration was used as the MIC value. When the MIC value differed by more than two concentrations, the experiment was repeated until it met the until requested.

[2] = test system: Multidrug-resistant Pseudomonas aeruginosa 174; assay: In vitro antibacterial activity of combination of extract and antibacterial drug (MIC, FIC)
[3] = test system: Escherichia coli; assay: as above
[4] = test system: Escherichia coli; assay: MIC by liquid micro-dilution method; design: key: “+” means bacterial growth; “−” means no bacterial growth
Experimental: as §1, §2, §3, §4

[5] = test system: Salmonella; assay: MIC by liquid micro-dilution method; design: key: “+” means bacterial growth; “−” means no bacterial growth
Experimental: as §1, §2, §3, §4

[6] = test system: Multidrug-resistant Staphylococcus aureus 222; assay: MIC by liquid micro-dilution method; design: key: “+” means bacterial growth; “−” means no bacterial growth
Experimental: as §1, §2, §3, §4

[7] = test system: Salmonella; assay: In vitro antibacterial activity of combination of extract and antibacterial drug (MIC, FIC)
[8] = test system: Multidrug-resistant Staphylococcus aureus 222; assay: as above
[9] = Table 4, positive control 128 μg/mL (Table 3)
[10] = Table 8, positive control 128 μg/mL (Table 3)
[11] = drug MIC in combination with the Paris Polyphylla Saponin Extract
[12] = Table 6, positive control 128 μg/mL (Table 3)
[13] = Table 7, positive control 128 μg/mL (Table 3)

## Gentamicin sulfate
[1]; [9]
  bacterial growth: −
[1]; [10]
  bacterial growth: −
[2]; [11]
  Combination Treatment MIC Combination: 0.125 µg/mL
[2]; drug alone
  Combination Treatment MIC Single: 0.125 µg/mL

## CO/N=C(\C(=O)N[C@@H]1C(=O)N2C(C(=O)O)=C(CSc3nc(=O)c(=O)[nH]n3C)CS[C@H]12)c1csc(N)n1 [Ceftriaxone sodium]
[3]; [11]
  Combination Treatment MIC Combination: 0.5 µg/mL
[3]; drug alone
  Combination Treatment MIC Single: 2 µg/mL
[4]; [9]
  bacterial growth: −
[4]; [12]
  bacterial growth: −
[4]; [13]
  bacterial growth: −
[4]; [10]
  bacterial growth: −

## CC1CCC2(OC1)OC1CC3C4CC=C5CC(OC6OC(CO)C(OC7OC(C)C(OC8OC(C)C(O)C(O)C8O)C(O)C7O)C(O)C6OC6OC(C)C(O)C(O)C6O)CCC5(C)C4CCC3(C)C1C2C (stereo not drawn) [Polyphyllin II]
[4]; Table 6, 0.25 μg/mL
  bacterial growth: +
[4]; Table 6, 0.5 μg/mL
  bacterial growth: +
[4]; Table 6, 1 μg/mL
  bacterial growth: +
[4]; Table 6, 2 μg/mL
  bacterial growth: +
[4]; Table 6, 4 μg/mL
  bacterial growth: +
[4]; Table 6, 8 μg/mL
  bacterial growth: +
[4]; Table 6, 16 μg/mL
  bacterial growth: +
[4]; Table 6, 32 μg/mL
  bacterial growth: +
[4]; Table 6, 64 μg/mL
  bacterial growth: +
[4]; Table 6, 128 μg/mL
  bacterial growth: +
[4]; Table 6, 256 μg/mL
  bacterial growth: +
[4]; Table 6, 512 μg/mL
  bacterial growth: +
[4]; Table 6, 1024 μg/mL
  bacterial growth: +
[5]; Table 6, 0.25 μg/mL
  bacterial growth: +
[5]; Table 6, 0.5 μg/mL
  bacterial growth: +
[5]; Table 6, 1 μg/mL
  bacterial growth: +
[5]; Table 6, 2 μg/mL
  bacterial growth: +
[5]; Table 6, 4 μg/mL
  bacterial growth: +
[5]; Table 6, 8 μg/mL
  bacterial growth: +
[5]; Table 6, 16 μg/mL
  bacterial growth: +
[5]; Table 6, 32 μg/mL
  bacterial growth: +
[5]; Table 6, 64 μg/mL
  bacterial growth: +
[5]; Table 6, 128 μg/mL
  bacterial growth: +
[5]; Table 6, 256 μg/mL
  bacterial growth: +
[5]; Table 6, 512 μg/mL
  bacterial growth: +
[5]; Table 6, 1024 μg/mL
  bacterial growth: +
[6]; Table 6, 0.25 μg/mL
  bacterial growth: +
[6]; Table 6, 0.5 μg/mL
  bacterial growth: +
[6]; Table 6, 1 μg/mL
  bacterial growth: +
[6]; Table 6, 2 μg/mL
  bacterial growth: +
[6]; Table 6, 4 μg/mL
  bacterial growth: +
[6]; Table 6, 8 μg/mL
  bacterial growth: +
[6]; Table 6, 16 μg/mL
  bacterial growth: +
[6]; Table 6, 32 μg/mL
  bacterial growth: +
[6]; Table 6, 64 μg/mL
  bacterial growth: +
[6]; Table 6, 128 μg/mL
  bacterial growth: +
[6]; Table 6, 256 μg/mL
  bacterial growth: +
[6]; Table 6, 512 μg/mL
  bacterial growth: +
[6]; Table 6, 1024 μg/mL
  bacterial growth: +

## C[C@@H]1CC[C@@]2(OC1)O[C@H]1C[C@H]3[C@@H]4CC=C5C[C@@H](O[C@@H]6O[C@H](CO)[C@@H](O)[C@H](O)[C@H]6O[C@@H]6O[C@@H](C)[C@H](O)[C@@H](O)[C@H]6O)CC[C@]5(C)[C@H]4CC[C@]3(C)[C@@]1(O)[C@@H]2C [Polyphyllin VI]
[4]; Table 7, Conc. 0.25 μg/mL
  bacterial growth: +
[4]; Table 7, Conc. 0.5 μg/mL
  bacterial growth: +
[4]; Table 7, Conc. 1 μg/mL
  bacterial growth: +
[4]; Table 7, Conc. 2 μg/mL
  bacterial growth: +
[4]; Table 7, Conc. 4 μg/mL
  bacterial growth: +
[4]; Table 7, Conc. 8 μg/mL
  bacterial growth: +
[4]; Table 7, Conc. 16 μg/mL
  bacterial growth: +
[4]; Table 7, Conc. 32 μg/mL
  bacterial growth: +
[4]; Table 7, Conc. 64 μg/mL
  bacterial growth: +
[4]; Table 7, Conc. 128 μg/mL
  bacterial growth: +
[5]; Table 7, Conc. 0.25 μg/mL
  bacterial growth: +
[5]; Table 7, Conc. 0.5 μg/mL
  bacterial growth: +
[5]; Table 7, Conc. 1 μg/mL
  bacterial growth: +
[5]; Table 7, Conc. 2 μg/mL
  bacterial growth: +
[5]; Table 7, Conc. 4 μg/mL
  bacterial growth: +
[5]; Table 7, Conc. 8 μg/mL
  bacterial growth: +
[5]; Table 7, Conc. 16 μg/mL
  bacterial growth: +
[5]; Table 7, Conc. 32 μg/mL
  bacterial growth: +
[5]; Table 7, Conc. 64 μg/mL
  bacterial growth: +
[5]; Table 7, Conc. 128 μg/mL
  bacterial growth: +

## C[C@H]1COc2c(N3CCN(C)CC3)c(F)cc3c(=O)c(C(=O)O)cn1c23 [Levofloxacin hydrochloride]
[5]; [9]
  bacterial growth: −
[5]; [12]
  bacterial growth: −
[5]; [13]
  bacterial growth: −
[5]; [10]
  bacterial growth: −
[7]; [11]
  Combination Treatment MIC Combination: 2 µg/mL
[7]; drug alone
  Combination Treatment MIC Single: 4 µg/mL

## Cc1nnc(SCC2=C(C(=O)O)N3C(=O)[C@@H](NC(=O)Cn4cnnn4)[C@H]3SC2)s1 [Cefazolin sodium]
[6]; [9]
  bacterial growth: −
[6]; [12]
  bacterial growth: −
[6]; [10]
  bacterial growth: −
[8]; [11]
  Combination Treatment MIC Combination: 16 µg/mL
[8]; drug alone
  Combination Treatment MIC Single: 128 µg/mL

## CC1CCC2(OC1)OC1CC3C4CC=C5CC(OC6OC(CO)C(OC7OC(C)C(OC8OC(C)C(O)C(O)C8O)C(O)C7O)C(O)C6OC6OC(C)C(O)C(O)C6O)CCC5(C)C4CCC3(C)C1(O)C2C (stereo not drawn) [Polyphyllin VII]
[1]; Table 8, 0.25 μg/mL
  bacterial growth: +
[1]; Table 8, 0.5 μg/mL
  bacterial growth: +
[1]; Table 8, 1 μg/mL
  bacterial growth: +
[1]; Table 8, 2 μg/mL
  bacterial growth: +
[1]; Table 8, 4 μg/mL
  bacterial growth: +
[1]; Table 8, 8 μg/mL
  bacterial growth: +
[1]; Table 8, 16 μg/mL
  bacterial growth: +
[1]; Table 8, 32 μg/mL
  bacterial growth: +
[1]; Table 8, 64 μg/mL
  bacterial growth: +
[1]; Table 8, 128 μg/mL
  bacterial growth: +
[1]; Table 8, 256 μg/mL
  bacterial growth: +
[1]; Table 8, 512 μg/mL
  bacterial growth: +
[1]; Table 8, 1024 μg/mL
  bacterial growth: +
[4]; Table 8, 0.25 μg/mL
  bacterial growth: +
[4]; Table 8, 0.5 μg/mL
  bacterial growth: +
[4]; Table 8, 1 μg/mL
  bacterial growth: +
[4]; Table 8, 2 μg/mL
  bacterial growth: +
[4]; Table 8, 4 μg/mL
  bacterial growth: +
[4]; Table 8, 8 μg/mL
  bacterial growth: +
[4]; Table 8, 16 μg/mL
  bacterial growth: +
[4]; Table 8, 32 μg/mL
  bacterial growth: +
[4]; Table 8, 64 μg/mL
  bacterial growth: +
[4]; Table 8, 128 μg/mL
  bacterial growth: +
[4]; Table 8, 256 μg/mL
  bacterial growth: +
[4]; Table 8, 512 μg/mL
  bacterial growth: +
[4]; Table 8, 1024 μg/mL
  bacterial growth: +
[5]; Table 8, 0.25 μg/mL
  bacterial growth: +
[5]; Table 8, 0.5 μg/mL
  bacterial growth: +
[5]; Table 8, 1 μg/mL
  bacterial growth: +
[5]; Table 8, 2 μg/mL
  bacterial growth: +
[5]; Table 8, 4 μg/mL
  bacterial growth: +
[5]; Table 8, 8 μg/mL
  bacterial growth: +
[5]; Table 8, 16 μg/mL
  bacterial growth: +
[5]; Table 8, 32 μg/mL
  bacterial growth: +
[5]; Table 8, 64 μg/mL
  bacterial growth: +
[5]; Table 8, 128 μg/mL
  bacterial growth: +
[5]; Table 8, 256 μg/mL
  bacterial growth: +
[5]; Table 8, 512 μg/mL
  bacterial growth: +
[5]; Table 8, 1024 μg/mL
  bacterial growth: +
[6]; Table 8, 0.25 μg/mL
  bacterial growth: +
[6]; Table 8, 0.5 μg/mL
  bacterial growth: +
[6]; Table 8, 1 μg/mL
  bacterial growth: +
[6]; Table 8, 2 μg/mL
  bacterial growth: +
[6]; Table 8, 4 μg/mL
  bacterial growth: +
[6]; Table 8, 8 μg/mL
  bacterial growth: +
[6]; Table 8, 16 μg/mL
  bacterial growth: +
[6]; Table 8, 32 μg/mL
  bacterial growth: +
[6]; Table 8, 64 μg/mL
  bacterial growth: +
[6]; Table 8, 128 μg/mL
  bacterial growth: +
[6]; Table 8, 256 μg/mL
  bacterial growth: +
[6]; Table 8, 512 μg/mL
  bacterial growth: +
[6]; Table 8, 1024 μg/mL
  bacterial growth: +
